The values below come from patent US20110166109A1, “Synergistic Active Compound Combinations Comprising Phenyltriazoles” (Bayer CropScience AG, priority 2009, published 2011).

What all share (type): in vivo
One test deals with Myzus persicae. The experiment in a line: Myzus persicae test (spray treatment of infested cabbage leaves). The settings on record: applied individually. As to the method: (§1) To produce a suitable preparation of active compound, 1 part by weight of active compound is mixed with the stated amounts of solvent and emulsifier, and the concentrate is diluted with emulsifier-containing water to the desired concentration.
Cabbage leaves (Brassica oleracea) which are heavily infested by the green peach aphid (Myzus persicae) are treated by spraying with the active compound preparation of the desired concentration.
After the desired period of time, the kill in % is determined. 100% means that all of the aphids have been destroyed; 0% means that none of the aphids have been destroyed. The kill rates determined are entered into Colby's formula.

The subject of another test is Phaedon cochleariae. The experiment in a line: Phaedon cochleariae larvae test (treated cabbage leaves). The conditions noted are these: applied individually; for pest or weed control at 100 g/ha / pest or weed control at 500 g/ha / pest or weed control at 200 g/ha: Phaedon cochleariae, 144 h, after 6 d, read-out: Kill in % after 6d.
The next test has as its system Tetranychus urticae. In words: Tetranychus test (OP-resistant/spray treatment), bean leaf discs. Here is the method: as §1
Discs of bean leaves (Phaseolus vulgaris) which are infested by all stages of the greenhouse red spidermite (Tetranychus urticae) are sprayed with an active compound preparation of the desired concentration.
After the desired period of time, the effect in % is determined. 100% means that all spider mites have been killed; 0% means that none of the spider mites have been killed.

In another test the test system is Spodoptera frugiperda. The experiment in a line: Spodoptera frugiperda larvae test (sprayed cabbage leaves). The settings on record: applied individually. As to the method:
as §1
Cabbage leaves (Brassica okracea) are treated by being sprayed with the preparation of active compound of the desired concentration and are populated with larvae of the armyworm (Spodoptera frugiperda) while the leaves are still moist.
After the desired period of time, the kill in % is determined. 100% means that all caterpillars have been killed; 0% means that none of the caterpillars have been killed. The kill rates determined are entered into Colby's formula.

Setting [1] is: Tetranychus urticae, foliar, 144 h, 500 g/ha, after 6 d, applied individually, read-out: Kill in % after 6d.
The mark [2] stands for this setting: Tetranychus urticae, foliar, 144 h, read-out: Kill in % after 6d.

Structures are written as SMILES. Where two headings read alike, the source gives them in different places.

Consider `Cc1cc(F)c(-n2nc(C(F)(F)F)nc2N)cc1[S+]([O-])CC(F)(F)F` (centres unmarked) [compound (I-4)], for which the “Kill in % after 1d” value in the test with Myzus persicae (100 g/ha) is on record as 0%. Further, in the test on Phaedon cochleariae, the pest or weed control at 100 g/ha came out at 0%. The pest or weed control at 4 g/ha in the test with Tetranychus urticae (Tetranychus urticae, foliar, 144 h, 4 g/ha, after 6 d, applied individually, read-out: Kill in % after 6d) amounted to 70%. Moreover, in the test on Tetranychus urticae (Tetranychus urticae, foliar, 144 h, 20 g/ha, after 6 d, applied individually, read-out: Kill in % after 6d), the pest or weed control at 20 g/ha came out at 80%. Besides, the “Kill in % after 6d” value in the test on Spodoptera frugiperda (100 g/ha) turned out to be 0%.

Take `Cc1nn(C)c(F)c1C(=O)Nc1ccccc1C(C)CC(C)C` (centres unmarked) [(6-18), N-[2-(1,3-dimethylbutyl)phenyl]-5-fluoro-1,3-dimethyl-1H-pyrazole-4-carboxamide]: the pest or weed control at 500 g/ha in the test with Phaedon cochleariae (500 g/ha) and in the test on Tetranychus urticae (setting [1]) was 0% throughout. In addition, the “Kill in % after 1d” value with Tetranychus urticae (500 g/ha, applied individually) came to 0%.

For `CSC1=N[C@@](C)(c2ccccc2)C(=O)N1Nc1ccccc1` [fenamidone], the pest or weed control at 500 g/ha in the test on Phaedon cochleariae (500 g/ha) and in the test with Tetranychus urticae (setting [2]) was 0% throughout. In the test on Spodoptera frugiperda (500 g/ha), the “Kill in % after 6d” value is recorded as 0%.

For `CCCOC(=O)NCCCN(C)C` [propamocarb], the pest or weed control at 200 g/ha in the test on Phaedon cochleariae turned out to be 17%. Further, the “Kill in % after 1d” value with Tetranychus urticae (500 g/ha, applied individually) is 0%. In addition, the pest or weed control at 500 g/ha with Tetranychus urticae (setting [1]) came out at 0%.

For the compound `COC(=O)Nc1nc2ccccc2[nH]1` [carbendazim], the “Kill in % after 6d” value in the test with Myzus persicae (500 g/ha) amounted to 20%.

`CC(C)(C)C(O)(CCc1ccc(Cl)cc1)Cn1cncn1` (centres unmarked) [tebuconazole]: the pest or weed control at 500 g/ha in the test with Phaedon cochleariae (500 g/ha) is 0%. For the same compound, the pest or weed control at 200 g/ha in the test with Tetranychus urticae (setting [2]) stood at 0%. For the same compound, the “Kill in % after 6d” value with Spodoptera frugiperda (500 g/ha) amounted to 0%.

For `N#Cc1ccccc1NC(=O)c1snc(Cl)c1Cl` [isotianil], in the test with Phaedon cochleariae (500 g/ha), the pest or weed control at 500 g/ha was determined as 0%.

Turning to `CO/C=C(/C(=O)OC)c1ccccc1Oc1cc(Oc2ccccc2C#N)ncn1` [azoxystrobin], the pest or weed control at 500 g/ha in the test with Phaedon cochleariae (500 g/ha) stood at 17%.

On to `CCC1(C(=O)NC(C)c2ccc(Cl)cc2)C(C)C1(Cl)Cl` (centres unmarked) [carpropamid], for which the pest or weed control at 500 g/ha with Phaedon cochleariae (500 g/ha) is 0%. Besides, the “Kill in % after 6d” value in the test on Spodoptera frugiperda (500 g/ha) was determined as 0%.

Take `CCCN(CC)CC1COC2(CCC(C(C)(C)C)CC2)O1` (centres unmarked) [spiroxamine]: in the test on Tetranychus urticae (setting [2]), the pest or weed control at 200 g/ha amounted to 0%.

Consider `COCC(=O)N(c1c(C)cccc1C)C(C)C(=O)OC` (centres unmarked) [metalaxyl], for which the “Kill in % after 1d” value with Tetranychus urticae (500 g/ha, applied individually) turned out to be 0%. For the same compound, the pest or weed control at 500 g/ha in the test with Tetranychus urticae (setting [2]) was determined as 0%.

With `CC(C)C1CCC(Cc2ccc(Cl)cc2)C1(O)Cn1cncn1` (centres unmarked) [ipconazole], the pest or weed control at 500 g/ha in the test with Phaedon cochleariae (500 g/ha) is 0%.

Consider `CO/N=C(/C1=NOCCO1)c1ccccc1Oc1ncnc(Oc2ccccc2Cl)c1F` [fluoxastrobin], for which the pest or weed control at 500 g/ha in the test on Phaedon cochleariae (500 g/ha) was determined as 33%; with Tetranychus urticae (setting [2]), 0%.

In the case of `O=C(Nc1ccccc1)N(Cc1ccc(Cl)cc1)C1CCCC1` [pencycuron], in the test on Phaedon cochleariae (500 g/ha), the pest or weed control at 500 g/ha amounted to 0%.

Consider `CC(C)(C)C(O)C(Oc1ccc(-c2ccccc2)cc1)n1cncn1` (centres unmarked) [bitertanol], for which the pest or weed control at 500 g/ha in the test with Phaedon cochleariae (500 g/ha) was determined as 0%.

As for `CO/N=C(/C(=O)OC)c1ccccc1CO/N=C(\C)c1cccc(C(F)(F)F)c1` [trifloxystrobin], the “Kill in % after 1d” value in the test with Myzus persicae (500 g/ha) amounted to 70%. The pest or weed control at 200 g/ha in the test on Phaedon cochleariae is 17%. The pest or weed control at 500 g/ha in the test with Phaedon cochleariae (500 g/ha) and with Tetranychus urticae (setting [2]) was 0% in each case.

For `Cc1cc(C)c([S+]([O-])CC(F)(F)F)cc1-n1cnc(C(F)(F)F)n1` (centres unmarked) [(I-1)], in the test on Myzus persicae (20 g/ha), the “Kill in % after 6d” value is recorded as 0%. Also, the pest or weed control at 100 g/ha in the test on Phaedon cochleariae was 0%. In addition, the “Kill in % after 1d” value in the test with Tetranychus urticae (0.16 g/ha, applied individually) came out at 0%. For the same compound, the pest or weed control at 0.16 g/ha in the test with Tetranychus urticae (Tetranychus urticae, foliar, 144 h, 0.16 g/ha, after 6 d, applied individually, read-out: Kill in % after 6d) came out at 0%. Also, in the test with Tetranychus urticae (Tetranychus urticae, foliar, 144 h, 0.8 g/ha, after 6 d, applied individually, read-out: Kill in % after 6d), the pest or weed control at 0.8 g/ha came to 60%.

Turning to `CNC(=O)/C(=N/OC)c1ccccc1Oc1ccccc1` [metominostrobin], in the test on Tetranychus urticae (setting [2]), the pest or weed control at 500 g/ha is 0%.

Consider `O=C(NCCc1ncc(C(F)(F)F)cc1Cl)c1ccccc1C(F)(F)F` [fluopyram, N-[2-[3-chloro-5-(trifluoromethyl)-2-pyridinyl]ethyl]-2-(trifluoromethyl)benzamide], for which the pest or weed control at 500 g/ha in the test on Phaedon cochleariae (500 g/ha) and in the test on Tetranychus urticae (setting [2]) was 0% throughout. Further, the “Kill in % after 6d” value in the test on Spodoptera frugiperda (500 g/ha) was 0%.

Consider `Cc1ccc(N(SC(F)(Cl)Cl)S(=O)(=O)N(C)C)cc1` [tolyfluanid, tolylfluanid], for which, in the test with Phaedon cochleariae (500 g/ha), the pest or weed control at 500 g/ha was determined as 0%.

`O=C(NCc1ncc(C(F)(F)F)cc1Cl)c1c(Cl)cccc1Cl` [fluopicolide, fluopicolid]: the “Kill in % after 6d” value in the test with Phaedon cochleariae (500 g/ha) is 0%. Also, the pest or weed control at 500 g/ha in the test on Phaedon cochleariae (500 g/ha) and in the test with Tetranychus urticae (setting [1]) was 0% each time.

Turning to `N#Cc1c[nH]cc1-c1cccc2c1OC(F)(F)O2` [fludioxonil], the pest or weed control at 200 g/ha came out at 33% in the test with Phaedon cochleariae and 0% in the test on Tetranychus urticae (setting [2]).

For `O=c1c2cc(F)ccc2nc(-n2cncn2)n1-c1ccc(Cl)cc1Cl` [fluquincoazole, fluquinconazole], the values for the pest or weed control at 500 g/ha in the test with Phaedon cochleariae (500 g/ha) and in the test on Tetranychus urticae (setting [2]) were 17% and 0%, respectively.

For the compound `CC(C)(C)C(O)C(Oc1ccc(Cl)cc1)n1cncn1` (centres unmarked) [triadimenol], the pest or weed control at 500 g/ha in the test on Phaedon cochleariae (500 g/ha) came out at 0%. Moreover, the pest or weed control at 200 g/ha in the test on Tetranychus urticae (setting [2]) was determined as 0%. Also, in the test with Spodoptera frugiperda (500 g/ha), the “Kill in % after 6d” value is recorded as 0%.

As for `Cn1cc(C(=O)Nc2ccc(F)cc2-c2ccc(Cl)c(Cl)c2)c(C(F)F)n1` [bixafen, N-(3′,4′-dichloro-5-fluoro[1,1′-biphenyl]-2-yl)-3-(difluoromethyl)-1-methyl-1H-pyrazole-4-carboxamide], the pest or weed control at 500 g/ha in the test on Phaedon cochleariae (500 g/ha) was found to be 0%. The “Kill in % after 1d” value in the test with Tetranychus urticae (200 g/ha, applied individually) is 0%.

Consider `OC(Cc1ccccc1Cl)(Cn1ncnc1S)C1(Cl)CC1` (centres unmarked) [prothioconazole], for which, in the test with Phaedon cochleariae (500 g/ha), the pest or weed control at 500 g/ha worked out at 0%. In the test on Tetranychus urticae (setting [2]), the pest or weed control at 200 g/ha was 0%. Further, in the test with Spodoptera frugiperda (500 g/ha), the “Kill in % after 6d” value was found to be 0%.
